System: U87MG glioblastoma xenograft
Test: U87MG glioblastoma xenograft tumor growth in nude mice
Format: in vivo
Description: The following human glioblastoma xenograft model may be employed to ascertain the efficacy of the formulations and methods described herein. Human glioblastoma cell U87MG are inoculated subcutaneously into female nude mice (age 4-6 wks). Xenograft tumor growth is followed by measuring the tumor size using a caliper. Once tumor size reaches about 100 mm^3 (average), mice carrying the xenograft tumors are grouped and treated with different doses of the combination of TMZ and a multi-targeted kinase inhibitor. Likewise, human glioblastoma cell U373 may be used to establish a xenograft model.
The combination of TMZ and a multi-targeted kinase inhibitor (e.g., sunitinib) for treating a cell proliferative disorder was examined using a human glioblastoma xenograft model. In particular, the glioblastoma model U87MG was used to evaluate the efficacy of multi-targeted kinase inhibitor sunitinib as a single agent compared to TMZ (Temozolomide, Temodar®), a chemotherapeutic drug clinically approved for treating brain tumor, as a single agent. In addition, this study looked at the efficacy of the combination of TMZ with sunitinib in comparison to the efficacy with either agent alone.
In brief, nude mice were inoculated with U87-MG glioblastoma cells and the resultant tumors treated with control, or various concentrations of TMZ, sunitinib, or a combination of both TMZ and sunitinib. More specifically, female nude mice (strain NU/NU), aged 6-8 weeks old were purchased from Charles River Laboratory. Five million glioblastoma U87-MG were mixed 1:1 (volume:volume) with Matrigel (Cat. # 354234, BD Biosciences) on ice and mixtures were inoculated subcutaneously to the flank of each mouse. Dosing was initiated on day 8 after inoculation when the tumor size was approximately 100 mm^3. TMZ was administered qd, ip for five consecutive days. Sunitinib was administered qd, po for 9-12 days consecutive days (until the end of the studies). The dosing volume was approximately 0.1 ml. Tumor size and body weight was measured two to three times per week.
There were 10 nude mice per dosing regimen.

SMILES | inhibition of tumor growth (Day 17 post inoculation (day 9 post dosing initiation), TMZ alone 20 mpk qd ip x5 days, Table 1 / FIG. 2) | inhibition of tumor growth (Day 17 post inoculation, TMZ alone 30 mpk (so in the source) qd ip x5 days, Table 1 / FIG. 2) | inhibition of tumor growth (Day 17 post inoculation, TMZ alone 40 mpk (so in the source) qd ip x5 days, Table 1 / FIG. 2) | inhibition of tumor growth (Day 20 post inoculation (day 12 post dosing initiation), TMZ alone 5 mpk qd ip x5 days, Table 2 / FIG. 4) | inhibition of tumor growth (Day 20 post inoculation, TMZ alone 20 mpk qd ip x5 days, Table 2 / FIG. 4) | inhibition of tumor growth (Day 17 post inoculation, sunitinib alone 40 mpk qd po, Table 1 / FIG. 2) | inhibition of tumor growth (Day 17 post inoculation, sunitinib alone 80 mpk qd po, Table 1 / FIG. 2) | inhibition of tumor growth (Day 20 post inoculation, sunitinib alone 40 mpk qd po, Table 2 / FIG. 4) | inhibition of tumor growth (Day 20 post inoculation, sunitinib alone 80 mpk qd po, Table 2 / FIG. 4)
Cn1nnc2c(C(N)=O)ncn2c1=O [TMZ, 3,4-dihydro-3-methyl-4-oxoimidazo[5,1-d]-as-tetazine-8-carboxamide] | 96% | 96% | 98% | 95% | 102% |  |  |  | 
CCN(CC)CCNC(=O)c1c(C)[nH]c(/C=C2\C(=O)Nc3ccc(F)cc32)c1C [sunitinib] |  |  |  |  |  | 56% | 82% | 76% | 83%
